The source of these data is ChEMBL document CHEMBL1681655, “Identification of a new series of non-peptidic NK3 receptor antagonists” (Bioorg Med Chem Lett, 2011).

Some results are limits rather than exact numbers.

Series [1] deals with Liver microsomes. The experiment in a line: Intrinsic clearance in human liver microsomes. In kind it is ADME, Microsome. In general terms: Liver microsomes are a subcellular fraction often used to study metabolism.
Series [2] is described as follows: Apparent permeability of the compound in human Caco2 cells. In kind it is ADME, cell-based. Conditions: caco-2. On the technique in general: Passage across Caco-2 layers is used to estimate intestinal permeability.
For series [3], the system named is Caco-2. The experiment in a line: Efflux ratio of permeability from […] in human Caco2 cells. In kind it is ADME, cell-based.
Series [4] deals with T1, Neuromedin-K receptor (Homo sapiens, UniProt P29371).
T1 sequence (P29371 whole entry): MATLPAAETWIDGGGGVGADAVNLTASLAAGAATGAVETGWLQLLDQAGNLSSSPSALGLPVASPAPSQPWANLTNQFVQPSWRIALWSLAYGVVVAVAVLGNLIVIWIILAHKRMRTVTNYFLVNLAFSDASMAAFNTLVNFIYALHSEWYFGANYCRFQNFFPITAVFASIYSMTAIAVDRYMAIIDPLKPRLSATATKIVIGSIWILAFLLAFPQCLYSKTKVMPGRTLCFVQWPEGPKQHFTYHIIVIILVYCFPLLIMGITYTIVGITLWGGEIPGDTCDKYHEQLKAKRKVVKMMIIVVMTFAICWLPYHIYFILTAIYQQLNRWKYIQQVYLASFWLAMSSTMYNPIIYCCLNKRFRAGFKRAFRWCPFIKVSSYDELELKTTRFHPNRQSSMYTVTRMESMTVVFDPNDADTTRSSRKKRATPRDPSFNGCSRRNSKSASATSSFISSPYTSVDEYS
The experiment in a line: Displacement of [3H]Lu AE93103 from human NK3 receptor expressed in BHK cells. In kind it is cell-based. Background: Loss of bound radioactivity is the signal in a displacement assay; it reports binding, not function.

Regarding `CC(=O)N(C)C1(c2ccccc2)CCN(C[C@@H]2C[C@@]2(C(=O)N(C)Cc2ccccc2)c2ccc(Cl)c(Cl)c2)CC1`, the CL in series [1] is 19 L/min. Also, in series [2], the Papp (as a rule, a coefficient for how fast a substance crosses the barrier) is 0.8 ×10⁻⁶ cm/s. Further, the Ratio in series [3] stood at 12. The inhibition constant Ki – broadly, a measure of affinity in units of concentration, obtained from inhibition or displacement – in series [4] is 4.2 nM.

As for `CN(Cc1ccccc1)C(=O)[C@@]1(c2ccc(Cl)c(Cl)c2)C[C@H]1CN1CCC(C(=O)N2CCCCC2)(c2ccccc2)CC1`, the CL in series [1] is given as more than 20 L/min. In series [2], the Papp was 0.3 ×10⁻⁶ cm/s. In addition, the Ratio in series [3] is on record as 17. This compound also displayed an inhibition constant (Ki) in series [4] of 6.1 nM.

The compound `COC(=O)NC1(c2ccccc2)CCN(C[C@@H]2C[C@@]2(C(=O)N(C)Cc2ccccc2)c2ccc(Cl)c(Cl)c2)CC1` registered a CL in series [1] of 6.3 L/min. For the same compound, in series [2], the Papp was found to be 0.4 ×10⁻⁶ cm/s. In series [3], the Ratio is on record as more than 100. For the same compound, the Ki in series [4] was found to be 1.5 nM.

As for `CNC(=O)NC1(c2ccccc2)CCN(C[C@@H]2C[C@@]2(C(=O)N(C)Cc2ccccc2)c2ccc(Cl)c(Cl)c2)CC1`, in series [1], the CL was 6.8 L/min. Also, the Papp in series [2] is 0.6 ×10⁻⁶ cm/s. Also, the Ratio in series [3] is recorded as 42. In addition, the Ki in series [4] was 5.6 nM.

Compound `CN(Cc1ccccc1)C(=O)[C@@]1(c2ccc(Cl)c(Cl)c2)C[C@H]1CN1CCC(NC(N)=O)(c2ccccc2)CC1` displayed a CL in series [1] of 2 L/min. Also, in series [2], the Papp turned out to be 0.6 ×10⁻⁶ cm/s. Moreover, the Ratio in series [3] is reported as 85. This compound had a Ki in series [4] of 12 nM.

Regarding `CN(Cc1ccccc1)C(=O)[C@@]1(c2ccc(Cl)c(Cl)c2)C[C@H]1CN1CCC(c2ccccc2)(N(C)C(=O)C(N)=O)CC1`, the CL in series [1] came out at 6.9 L/min. Moreover, the Papp in series [2] is 1.3 ×10⁻⁶ cm/s. The Ratio in series [3] is 13. For the same compound, the affinity in series [4], expressed as Ki, was 3.6 nM.

In the case of `CN(Cc1ccccc1)C(=O)[C@@]1(c2ccc(Cl)c(Cl)c2)C[C@H]1CN1CCC(NS(C)(=O)=O)(c2ccccc2)CC1`, the CL in series [1] stood at 15 L/min. Further, the apparent permeability coefficient (Papp) in series [2] was found to be 0.1 ×10⁻⁶ cm/s. For the same compound, the Ratio in series [3] is 120. The compound further returned an inhibitory constant (Ki) in series [4] of 7.8 nM.

With `CN(Cc1ccc(F)cc1)C(=O)[C@@]1(c2ccc(Cl)c(Cl)c2)C[C@H]1CN1CCN(C(=O)CN2CCOCC2)CC1`, in series [1], the CL is given as 16 L/min. In addition, in series [2], the apparent permeability coefficient (Papp) stood at 35 ×10⁻⁶ cm/s. Further, the Ratio in series [3] was 1.5. The same compound showed a Ki in series [4] of 3.3 nM.

Regarding `CN(Cc1ccc(F)cc1)C(=O)[C@@]1(c2ccc(Cl)c(Cl)c2)C[C@H]1CN1CCN(CC(=O)N2CCCC2)CC1`, the CL in series [1] stood at 12 L/min. Moreover, the Papp in series [2] was found to be 27 ×10⁻⁶ cm/s. Further, the Ratio in series [3] is reported as 1.3. The same compound showed a Ki in series [4] of 1.8 nM.

On to `CN(C)C(=O)CCN1CCN(C[C@@H]2C[C@@]2(C(=O)N(C)Cc2ccc(F)cc2)c2ccc(Cl)c(Cl)c2)CC1`, for which the CL in series [1] turned out to be 8.5 L/min. Also, the Papp in series [2] amounted to 28 ×10⁻⁶ cm/s. The Ratio in series [3] is on record as 1.1. In addition, the affinity in series [4], expressed as Ki, was 17 nM.

Take `CN(Cc1ccc(F)cc1)C(=O)[C@@]1(c2ccc(Cl)c(Cl)c2)C[C@H]1CN1CCN(C(=O)CN2CCCCC2)CC1`: the CL in series [1] amounted to 10 L/min. Besides, the Papp in series [2] came to 2.9 ×10⁻⁶ cm/s. The Ratio in series [3] came out at 4.2. In series [4], this compound showed a Ki of 7.3 nM.

With `CN(Cc1ccc(F)cc1)C(=O)[C@@]1(c2ccc(Cl)c(Cl)c2)C[C@H]1CN1CCN(C(=O)CN2CCCC2)CC1`, in series [1], the CL came to 5.6 L/min. Besides, the Papp in series [2] worked out at 5.7 ×10⁻⁶ cm/s. For the same compound, the Ratio in series [3] amounted to 3.5. Further, in series [4], the affinity corresponds to a Ki of 12 nM.

In series [1], `CN(Cc1ccc(F)cc1)C(=O)[C@@]1(c2ccc(Cl)c(Cl)c2)C[C@H]1CN1CCN(C(=O)CN2CCCCCC2)CC1` had a CL of 15 L/min. This compound also displayed an inhibition constant Ki in series [4] of 8.7 nM.

In series [1], `CN(Cc1ccc(F)cc1)C(=O)[C@@]1(c2ccc(Cl)c(Cl)c2)C[C@H]1CN1CC(N2CCN(S(=O)(=O)N(C)C)CC2)C1` gave a CL of 12 L/min. In addition, the affinity in series [4] corresponds to a Ki of 1.9 nM.

Consider `CCCNC[C@@H]1C[C@@]1(C(=O)N(C)Cc1ccc(F)cc1)c1ccc(Cl)c(Cl)c1`, for which, in series [1], the CL worked out at 0.9 L/min. Also, the Papp in series [2] is 5.4 ×10⁻⁶ cm/s. Also, the Ratio in series [3] turned out to be 2.7. Also, the affinity in series [4], expressed as Ki, was 150 nM.
